Legend:
[1] = tested on: Scopolamine Induced Memory Deficit; test: Scopolamine-induced Dark Avoidance Assay; details: s.c., mice, 24 h
Protocol: In this assay mice are tested for their ability to remember an unpleasant stimulus for a period of 24 hours. A mouse is placed in a chamber that contains a dark compartment; a strong incandescent light drives it to the dark compartment, where an electric shock is administered through metal plates on the floor. The animal is removed from the testing apparatus and tested again, 24 hours later, for the ability to remember the electric shock.
If scopolamine, an anticholinergic that is known to cause memory impariment, is administered before an animal's initial exposure to the test chamber, the animal re-enters the dark compartment shortly after being placed in the test chamber 24 hours later.

[2] = biological target: acetylcholinesterase (Homo sapiens, UniProt P22303); test: Cholinesterase inhibition assay (photometric method of Ellman et al.); type: biochemical
acetylcholinesterase, sequence (P22303 32-614): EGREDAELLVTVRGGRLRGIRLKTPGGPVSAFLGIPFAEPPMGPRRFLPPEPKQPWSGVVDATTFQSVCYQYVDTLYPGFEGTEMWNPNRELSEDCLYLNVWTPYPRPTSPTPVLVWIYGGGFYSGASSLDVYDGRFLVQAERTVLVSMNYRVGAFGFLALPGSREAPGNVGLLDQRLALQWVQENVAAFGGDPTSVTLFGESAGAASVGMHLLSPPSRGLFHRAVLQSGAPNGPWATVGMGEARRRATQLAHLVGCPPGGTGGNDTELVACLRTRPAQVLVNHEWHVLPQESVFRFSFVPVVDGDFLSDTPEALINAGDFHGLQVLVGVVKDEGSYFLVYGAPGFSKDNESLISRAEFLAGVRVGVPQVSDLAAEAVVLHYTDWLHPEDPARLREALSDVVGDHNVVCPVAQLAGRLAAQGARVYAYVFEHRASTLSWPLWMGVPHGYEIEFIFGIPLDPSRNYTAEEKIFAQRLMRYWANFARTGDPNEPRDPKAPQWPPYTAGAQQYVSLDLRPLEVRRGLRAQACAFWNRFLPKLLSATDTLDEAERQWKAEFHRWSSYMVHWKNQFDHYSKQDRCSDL

## CC1(C(=O)O)CCCCC1=Nc1c2c(nc3ccccc13)CCCC2 (stereo not drawn) [1-Methyl-2-(1,2,3,4-tetrahydroacridinimino)cyclohexane carboxylic acid]
[1]; 2.5 mg/kg of body weight
  % of Animals with Scopolamine Induced Memory Deficit Reversal: 20%

## CCOC(=O)C1CCCCC1=Nc1c2c(nc3ccccc13)CCCC2 (stereo not drawn) [2-(1,2,3,4-Tetrahydro-9-acridinimino)cyclohexanecarboxylic acid ethyl ester]
[1]; 0.16 mg/kg of body weight
  % of Animals with Scopolamine Induced Memory Deficit Reversal: 29%
[2]
  IC50: 15.2 µM

## O=C(O)C1CCCCC1=Nc1c2c(nc3ccccc13)CCCC2 (stereo not drawn) [2-(1,2,3,4-Tetrahydro-9-acridinimino)cyclohexanecarboxylic acid]
[1]; 0.63 mg/kg of body weight
  % of Animals with Scopolamine Induced Memory Deficit Reversal: 53%

## O=C(OCc1ccccc1)C1=C(N(Cc2ccccc2)c2c3c(nc4ccccc24)CCCC3)CCCC1 [2-[N-(Phenylmethyl)-1,2,3,4-tetrahydro-9-acridinamino]-cyclohex-1-ene carboxylic acid phenylmethyl ester]
[1]; 0.63 mg/kg of body weight
  % of Animals with Scopolamine Induced Memory Deficit Reversal: 29%

## CNC(=O)Oc1ccc2c(c1)[C@]1(C)CCN(C)[C@@H]1N2C [Physostigmine, reference compound]
[1]; 0.31 mg/kg of body weight
  % of Animals with Scopolamine Induced Memory Deficit Reversal: 20%

Source: patent US4999358A, “(1,2,3,4-tetrahydro-9-acridinimino)cyclohexane carboxylic acid and related compounds” (Hoechst-Roussel Pharmaceuticals Inc., priority 1989, dated 1991)
